According to patent US9540343B2 (Gilead Sciences, Inc., priority 2011, dated 2017):

Tests used:
HIV-IIIb = assay: Test A: Antiviral assay in MT4 cells; format: cell-based, HIV-1; conditions: Human immunodeficiency virus 1, IIIB, MT4, 120 h, read-out: % inhibition at 2 μM, percent inhibition of virus-induced cell killing, from dose response curve at 2 uM drug; MT-4 cells infected with HIV-IIIb, 5 days, CellTiter-Glo
in vitro = conditions: human, uninfected MT-4 cells, CC50 (nM), same protocol as Test A, CellTiter-Glo
Method in brief: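 Cytoprotection read-out: CellTiter-Glo chemiluminescence after 5 days at 37 °C of HIV-IIIb-infected MT-4 cells (m.o.i. 0.003) with compound in 10-point 3-fold dilutions, quadruplicate, 10% FBS. Cytotoxicity (CC50) measured identically without virus.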

Row | SMILES | inhibition at 2 µM (HIV-IIIb) | CC50 at 5 days (in vitro)
1 | COc1cc(C)c(-c2cccnc2C(Cc2cc(F)cc(F)c2)NC(=O)Cn2nc(C(F)(F)F)c3c2CCCC3)c(C)c1 (stereo not drawn) [Example 8, N-(2-(3,5-difluorophenyl)-1-(3-(4-methoxy-2,6-dimethylphenyl)pyridin-2-yl)ethyl)-2-(3-(trifluoromethyl)-4,5,6,7-tetrahydro-1H-indazol-1-yl)acetamide] | 20% | 15700 nM
2 | O=C(Cc1c[nH]c2ccc(F)cc12)N[C@@H](Cc1cc(F)cc(F)c1)c1ncccc1-c1ccc(Cl)c(Cl)c1 [Example 396, (S)—N-(1-(3-(3,4-dichlorophenyl)pyridin-2-yl)-2-(3,5-difluorophenyl)ethyl)-2-(5-fluoro-1H-indol-3-yl)acetamide] | 39% | 10000 nM
3 | O=C(Cc1c[nH]c2ccc(F)cc12)N[C@@H](Cc1cc(F)cc(F)c1)c1ncccc1-c1cccc(C(F)(F)F)c1 [Example 110, (S)—N-(2-(3,5-difluorophenyl)-1-(3-(3-(trifluoromethyl)phenyl)pyridin-2-yl)ethyl)-2-(5-fluoro-1H-indol-3-yl)acetamide] | 6% | 7610 nM
4 | CC1CCCc2c1c(C(F)(F)F)nn2CC(=O)N[C@@H](Cc1cc(F)cc(F)c1)c1ncccc1-c1ccc(F)c(C(N)=O)c1 (stereo partly drawn) [Example 272F, 5-(2-((1S)-2-(3,5-difluorophenyl)-1-(2-(4-methyl-3-(trifluoromethyl)-4,5,6,7-tetrahydro-1H-indazol-1-yl)acetamido)ethyl)pyridin-3-yl)-2-fluorobenzamide] | 92% | 14300 nM
5 | NC(=O)c1cc(-c2cccnc2[C@H](Cc2cc(F)cc(F)c2)NC(=O)Cn2ccc3cnccc32)ccc1F [Example 514, (S)-5-(2-(1-(2-(1H-pyrrolo[3,2-c]pyridin-1-yl)acetamido)-2-(3,5-difluorophenyl)ethyl)pyridin-3-yl)-2-fluorobenzamide] | 3% | > 46100 nM
6 | Cc1ccccc1-c1cccnc1[C@H](Cc1cccc(F)c1)NC(=O)Cc1c[nH]c2ccc(O)cc12 [Example 24, (S)—N-(2-(3-fluorophenyl)-1-(3-o-tolylpyridin-2-yl)ethyl)-2-(5-hydroxy-1H-indol-3-yl)acetamide] | 39% | 24800 nM
7 | NC(=O)c1cc(-c2cccnc2[C@H](Cc2cc(F)cc(F)c2)NC(=O)Cn2nc(C(F)F)cc2C(F)F)ccc1F [Example 505, (S)-5-(2-(1-(2-(3,5-bis(difluoromethyl)-1H-pyrazol-1-yl)acetamido)-2-(3,5-difluorophenyl)ethyl)pyridin-3-yl)-2-fluorobenzamide] | 28% | > 47400 nM
8 | C#Cc1cn(CC(=O)N[C@@H](Cc2cc(F)cc(F)c2)c2ncccc2-c2ccc(F)c(C(N)=O)c2)nc1C(F)(F)F [Example 341, (S)-5-(2-(2-(3,5-difluorophenyl)-1-(2-(4-ethynyl-3-(trifluoromethyl)-1H-pyrazol-1-yl)acetamido)ethyl)pyridin-3-yl)-2-fluorobenzamide] | 13% | 26600 nM
9 | NC(=O)c1cc(-c2cccnc2[C@H](Cc2cc(F)cc(F)c2)NC(=O)CC2C(=O)Nc3ccc(F)cc32)ccc1F (stereo partly drawn) [Example 267, 5-(2-((1S)-2-(3,5-difluorophenyl)-1-(2-(5-fluoro-2-oxoindolin-3-yl)acetamido)ethyl)pyridin-3-yl)-2-fluorobenzamide] | 5% | > 52900 nM
10 | NC(=O)c1cc(-c2cccnc2[C@H](Cc2cc(F)cc(F)c2)NC(=O)Cn2nc3c(c2C(F)(F)F)C(F)(F)C2CC32)ccc1F (stereo partly drawn) [Example 381, 5-(2-((1S)-1-(2-(4,4-difluoro-3-(trifluoromethyl)-4,4-a,5,5a-tetrahydro-2H-cyclopropa[4,5]cyclopenta[1,2-c]pyrazol-2-yl)acetamido)-2-(3,5-difluorophenyl)ethyl)pyridin-3-yl)-2-fluorobenzamide] | 1% | 24900 nM
11 | O=C(Cc1c[nH]c2ccc(F)cc12)N[C@@H](Cc1cc(F)cc(F)c1)c1ncccc1-c1ccnc(-c2nn[nH]n2)c1 [Example 302, (S)—N-(1-(2′-(2H-tetrazol-5-yl)-3,4′-bipyridin-2-yl)-2-(3,5-difluorophenyl)ethyl)-2-(5-fluoro-1H-indol-3-yl)acetamide] | 0% | 16800 nM
12 | Nc1cc(-c2cccnc2[C@H](Cc2cc(F)cc(F)c2)NC(=O)Cc2c[nH]c3ccc(F)cc23)ccc1F [Example 470, (S)—N-(1-(3-(3-amino-4-fluorophenyl)pyridin-2-yl)-2-(3,5-difluorophenyl)ethyl)-2-(5-fluoro-1H-indol-3-yl)acetamide] | 68% | 20800 nM
13 | CN1Cc2nn(CC(=O)N[C@@H](Cc3cc(F)cc(F)c3)c3ncccc3-c3ccc(F)c(C(N)=O)c3)c(C(F)(F)F)c2C1 [Example 210, (S)-5-(2-(2-(3,5-difluorophenyl)-1-(2-(5-methyl-3-(trifluoromethyl)-5,6-dihydropyrrolo[3,4-c]pyrazol-2(4H)-yl)acetamido)ethyl)pyridin-3-yl)-2-fluorobenzamide] | 0% | > 53200 nM
14 | NC(=O)c1cc(-c2cccnc2[C@H](Cc2cc(F)cc(F)c2)NC(=O)Cn2nc3c(c2C(F)(F)F)CCC3)ccc1F [Example 151E, (S)-5-(2-(2-(3,5-difluorophenyl)-1-(2-(3-(trifluoromethyl)-5,6-dihydrocyclopenta[c]pyrazol-2(4H)-yl)acetamido)ethyl)pyridin-3-yl)-2-fluorobenzamide] | 11% | 20300 nM
15 | NC(=O)c1cc(-c2cccnc2[C@H](Cc2cc(F)cc(F)c2)NC(=O)Cn2nc(C(F)(F)F)c3c2C2CC2CC3(F)F)ccc1F (stereo partly drawn) [Example 364, 5-(2-((1S)-1-(2-(4,4-difluoro-3-(trifluoromethyl)-5,5a,6,6a-tetrahydrocyclopropa[g]indazol-1(4H)-yl)acetamido)-2-(3,5-difluorophenyl)ethyl)pyridin-3-yl)-2-fluorobenzamide] | 38% | 3760 nM
16 | CC(=O)Nc1ccc(-c2cccnc2[C@H](Cc2cc(F)cc(F)c2)NC(=O)Cc2c[nH]c3ccc(F)cc23)cc1 [Example 394] | 14% | 30800 nM
17 | O=C(Cc1c[nH]c2ccc(F)cc12)N[C@@H](Cc1cc(F)cc(F)c1)c1ncccc1-c1cccc(OC(F)(F)F)c1 [Example 67, (S)—N-(2-(3,5-difluorophenyl)-1-(3-(3-(trifluoromethoxy)phenyl)pyridin-2-yl)ethyl)-2-(5-fluoro-1H-indol-3-yl)acetamide] | 0% | 6460 nM
18 | NC(=O)c1cc(-c2cccnc2[C@H](Cc2cc(F)cc(F)c2)NC(=O)Cn2nc(C(F)(F)F)c3c2C(=O)CC3(F)F)ccc1F [Example 551, (S)-5-(2-(1-(2-(4,4-difluoro-6-oxo-3-(trifluoromethyl)-5,6-dihydrocyclopenta[c]pyrazol-1(4H)-yl)acetamido)-2-(3,5-difluorophenyl)ethyl)pyridin-3-yl)-2-fluorobenzamide] | 0% | > 53200 nM
19 | NC(=O)c1cc(-c2cccnc2C(Cc2cc(F)cc(F)c2)NC(=O)Cn2nc(C(F)F)c3c2C(F)(F)CCC3F)ccc1F (stereo not drawn) [Example 390, 5-(2-(1-(2-(3-(difluoromethyl)-4,7,7-trifluoro-4,5,6,7-tetrahydro-1H-indazol-1-yl)acetamido)-2-(3,5-difluorophenyl)ethyl)pyridin-3-yl)-2-fluorobenzamide] | 99% | 21600 nM
20 | NC(=O)c1cc(-c2cccnc2[C@H](Cc2cc(F)cc(F)c2)NC(=O)C2(c3ccccc3)CC2)ccc1F [Example 477, (S)-5-(2-(2-(3,5-difluorophenyl)-1-(1-phenylcyclopropanecarboxamido)ethyl)pyridin-3-yl)-2-fluorobenzamide] | 0% | 21400 nM
21 | Cc1ccc2c(c1)C(CC(=O)N[C@@H](Cc1cc(F)cc(F)c1)c1ncccc1-c1ccc(F)c(C(N)=O)c1)C(=O)N2 (stereo partly drawn) [Example 193, 5-(2-((1S)-2-(3,5-difluorophenyl)-1-(2-(5-methyl-2-oxoindolin-3-yl)acetamido)ethyl)pyridin-3-yl)-2-fluorobenzamide] | 2% | > 53200 nM
22 | O=C(Cc1c[nH]c2ccc(F)cc12)N[C@@H](Cc1cc(F)cc(F)c1)c1ncccc1-c1ccc(N2CCCC2)nc1 [Example 101, (S)—N-(2-(3,5-difluorophenyl)-1-(6′-(pyrrolidin-1-yl)-3,3′-bipyridin-2-yl)ethyl)-2-(5-fluoro-1H-indol-3-yl)acetamide] | 29% | 12600 nM
23 | CCCCNS(=O)(=O)c1ccc(-c2cccnc2[C@H](Cc2cc(F)cc(F)c2)NC(=O)Cn2nc(C(F)F)c3c2C(F)(F)C2CC32)cc1 (stereo partly drawn) [Example 393, (S)—N-(1-(3-(4-(N-butylsulfamoyl)phenyl)-pyridin-2-yl)-2-(3,5-difluorophenyl)ethyl)-2-(3-(difluoromethyl)-5,6-dihydro-4,5-(methano)-6,6-difluoro-cyclopenta[c]pyrazol-1(4H)-yl)acetamide] | 54% | 26100 nM
24 | NC(=O)c1cc(-c2cccnc2[C@H](Cc2cc(F)cc(F)c2)NC(=O)Cn2nc(C(=O)O)c3c2COC3)ccc1F [Example 456, (S)-1-(2-(1-(3-(3-carbamoyl-4-fluorophenyl)pyridin-2-yl)-2-(3,5-difluorophenyl)ethylamino)-2-oxoethyl)-4,6-dihydro-1H-furo[3,4-c]pyrazole-3-carboxylic acid] | 0% | > 53200 nM
